The text below walks through data of US6969702B2, “Compounds and methods for increasing neurogenesis” (priority 2002, dated 2005).

Data set [1] concerns mouse adult neural stem cells. Nature of the data set: ATP-assay: proliferation (ATP levels) of neurosphere-derived cells. Particulars: for Fold Induction ATP: vs vehicle.
For data set [2], the system named is cAMP activation in mouse adult neural stem cells. Nature of the data set: cAMP detection (HitHunter EFC Cyclic AMP Chemiluminescence Assay). Particulars: Table 2.

Marks after values point to notes of the source that are not given here. Peptide text beside a SMILES is read from it.

As for `CC(C)C[C@H](NC(=O)[C@H](CCCCN)NC(=O)CNC(=O)[C@H](CC(C)C)NC(=O)[C@@H](N)C(C)C)C(=O)N[C@@H](CO)C(=O)N[C@@H](CCC(N)=O)C(=O)N[C@@H](CCC(=O)O)C(=O)N[C@@H](CC(C)C)C(=O)N[C@@H](Cc1c[nH]cn1)C(=O)N[C@@H](CCCCN)C(=O)N[C@@H](CC(C)C)C(=O)N[C@@H](CCC(N)=O)C(=O)N[C@H](C(=O)N[C@@H](Cc1ccc(O)cc1)C(=O)N1CCC[C@H]1C(=O)N[C@@H](CCCNC(=N)N)C(=O)N[C@H](C(=O)N[C@@H](CC(N)=O)C(=O)N[C@H](C(=O)NCC(=O)N[C@@H](CO)C(=O)NCC(=O)N[C@H](C(=O)N1CCC[C@H]1C(N)=O)[C@@H](C)O)[C@@H](C)O)[C@@H](C)O)[C@@H](C)O` (H-VLGKLSQELHKLQTYPRTNTGSGTP-NH2; N-terminus and C-terminus assumed), the “ATP (nM ATP/well)” value in data set [1] (Table 4, 100 nM) is reported as 15.0 ± 2.2 nM ATP/well. With `CSCC[C@H](NC(=O)[C@H](CO)NC(=O)[C@H](Cc1ccc(O)cc1)NC(=O)[C@@H](N)CO)C(=O)N[C@@H](CCC(=O)O)C(=O)N[C@@H](Cc1cnc[nH]1)C(=O)N[C@@H](Cc1ccccc1)C(=O)N[C@@H](CCCNC(=N)N)C(=O)N[C@@H](Cc1c[nH]c2ccccc12)C(=O)NCC(=O)N[C@@H](CCCCN)C(=O)N1CCC[C@H]1C(=O)N[C@H](C(=O)NCC(=O)N[C@@H](CCCCN)C(=O)N[C@@H](CCCCN)C(=O)N[C@@H](CCCNC(=N)N)C(=O)N[C@@H](CCCNC(=N)N)C(=O)N1CCC[C@H]1C(=O)N[C@H](C(=O)N[C@@H](CCCCN)C(=O)N[C@H](C(=O)N[C@@H](Cc1ccc(O)cc1)C(=O)N1CCC[C@H]1C(=O)N[C@@H](CC(N)=O)C(=O)NCC(=O)N[C@@H](C)C(=O)N[C@@H](CCC(=O)O)C(=O)N[C@@H](CC(=O)O)C(=O)N[C@@H](CCC(=O)O)C(=O)N[C@@H](CO)C(=O)N[C@@H](C)C(=O)N[C@@H](CCC(=O)O)C(=O)N[C@@H](C)C(=O)N[C@@H](Cc1ccccc1)C(=O)N1CCC[C@H]1C(=O)N[C@@H](CC(C)C)C(=O)N[C@@H](CCC(=O)O)C(=O)N[C@@H](Cc1ccccc1)C(=O)O)C(C)C)C(C)C)C(C)C` [ACTH (Human)] (H-SYSMEHFRWGKPVGKKRRPVKVYPNGAEDESAEAFPLEF-OH), the “Fold Induction ATP” value in data set [1] (Table 2, 1000 nM, 4 days) is listed as 1.2* fold. For the same compound, the “Fold Induction cAMP” value in data set [2] (100 nM, vs vehicle) is 1.8** (100 nM) fold. As to `CSCC[C@H](NC(=O)[C@H](CO)NC(=O)[C@H](Cc1ccc(O)cc1)NC(=O)[C@@H](N)CO)C(=O)N[C@@H](CCC(=O)O)C(=O)N[C@@H](Cc1c[nH]cn1)C(=O)N[C@@H](Cc1ccccc1)C(=O)N[C@@H](CCCNC(=N)N)C(=O)N[C@@H](Cc1c[nH]c2ccccc12)C(=O)NCC(=O)N[C@@H](CCCCN)C(=O)N1CCC[C@H]1C(=O)N[C@H](C(=O)NCC(=O)N[C@@H](CCCCN)C(=O)N[C@@H](CCCCN)C(=O)N[C@@H](CCCNC(=N)N)C(=O)N[C@@H](CCCNC(=N)N)C(=O)N1CCC[C@H]1C(=O)N[C@H](C(=O)N[C@@H](CCCCN)C(=O)N[C@H](C(=O)N[C@@H](Cc1ccc(O)cc1)C(=O)N1CCC[C@H]1C(=O)N[C@@H](CC(N)=O)C(=O)NCC(=O)N[C@@H](C)C(=O)N[C@@H](CCC(=O)O)C(=O)N[C@@H](CC(=O)O)C(=O)N[C@@H](CCC(=O)O)C(=O)N[C@@H](CO)C(=O)N[C@@H](C)C(=O)N[C@@H](CCC(=O)O)C(=O)N[C@@H](C)C(=O)N[C@@H](Cc1ccccc1)C(=O)N1CCC[C@H]1C(=O)N[C@@H](CC(C)C)C(=O)N[C@@H](CCC(=O)O)C(=O)N[C@@H](Cc1ccccc1)C(=O)O)C(C)C)C(C)C)C(C)C` [ACTH (Human)] (H-SYSMEHFRWGKPVGKKRRPVKVYPNGAEDESAEAFPLEF-OH; N-terminus and C-terminus assumed), in data set [1] (Table 2, 1000 nM, 4 days), the “ATP (nM ATP/well)” value is given as 15.7 ± 1.3 nM ATP/well. Further, in data set [2] (100 nM (cAMP concentration)), the “cAMP (pmol/well)” value was 0.11 ± 0.02 pmol/well.

For the compound `CC[C@H](C)[C@@H]1NC(=O)[C@H](CCCNC(=N)N)NC(=O)[C@H](CC(=O)O)NC(=O)[C@H](CCSC)NC(=O)[C@H](CCCNC(=N)N)NC(=O)CNC(=O)CNC(=O)[C@H](Cc2ccccc2)NC(=O)[C@@H](NC(=O)[C@H](CO)NC(=O)[C@H](CO)NC(=O)[C@H](CCCNC(=N)N)NC(=O)[C@H](CCCNC(=N)N)NC(=O)[C@H](CC(C)C)NC(=O)[C@@H](N)CO)CSSC[C@@H](C(=O)N[C@@H](CC(N)=O)C(=O)N[C@@H](CO)C(=O)N[C@@H](Cc2ccccc2)C(=O)N[C@@H](CCCNC(=N)N)C(=O)N[C@@H](Cc2ccc(O)cc2)C(=O)O)NC(=O)CNC(=O)[C@H](CC(C)C)NC(=O)CNC(=O)[C@H](CO)NC(=O)[C@H](CCC(N)=O)NC(=O)[C@H](C)NC(=O)CNC1=O` [ANP (human)], in data set [1] (Table 4, 10 nM), the “ATP (nM ATP/well)” value came to 12.7 ± 1.0 nM ATP/well and the “Fold Induction ATP” value is 1.3* fold. As to `CC[C@H](C)[C@H](NC(=O)[C@H](CCC(N)=O)NC(=O)[C@H](Cc1c[nH]cn1)NC(=O)[C@H](C)NC(=O)[C@@H](N)CC(C)C)C(=O)N[C@@H](Cc1ccc(O)cc1)C(=O)N[C@@H](CCC(N)=O)C(=O)N[C@@H](Cc1ccccc1)C(=O)N[C@H](C(=O)N[C@@H](CC(=O)O)C(=O)N[C@@H](CCCCN)C(=O)N[C@@H](CC(=O)O)C(=O)N[C@@H](CCCCN)C(=O)N[C@@H](CC(=O)O)C(=O)N[C@@H](CC(N)=O)C(=O)N[C@H](C(=O)N[C@@H](C)C(=O)N1CCC[C@H]1C(=O)N[C@@H](CCCNC(=N)N)C(=O)N[C@@H](CO)C(=O)N[C@@H](CCCCN)C(=O)N[C@H](C(=O)N[C@@H](CO)C(=O)N1CCC[C@H]1C(=O)N[C@@H](CCC(N)=O)C(=O)NCC(=O)N[C@@H](Cc1ccc(O)cc1)C(N)=O)[C@@H](C)CC)C(C)C)[C@@H](C)O` [Adrenomedullin (26-52)] (H-LAHQIYQFTDKDKDNVAPRSKISPQGY-NH2; N-terminus and C-terminus assumed), the “ATP (nM ATP/well)” value in data set [1] (Table 2, 1 nM, 4 days) amounted to 11.4 ± 0.7 nM ATP/well. In addition, in data set [2] (1 nM (cAMP concentration)), the “cAMP (pmol/well)” value came to 0.33 ± 0.07 pmol/well.

On to `CC[C@H](C)[C@@H]1NC(=O)[C@H](CCCNC(=N)N)NC(=O)[C@H](CC(=O)O)NC(=O)[C@H](CCSC)NC(=O)[C@H](CCCNC(=N)N)NC(=O)CNC(=O)CNC(=O)[C@H](Cc2ccccc2)NC(=O)[C@@H](NC(=O)[C@H](CO)NC(=O)[C@H](CO)NC(=O)[C@H](CCCNC(=N)N)NC(=O)[C@H](CCCNC(=N)N)NC(=O)[C@H](CC(C)C)NC(=O)[C@@H](N)CO)CSSC[C@@H](C(=O)N[C@@H](CC(N)=O)C(=O)N[C@@H](CO)C(=O)N[C@@H](Cc2ccccc2)C(=O)N[C@@H](CCCNC(=N)N)C(=O)N[C@@H](Cc2ccc(O)cc2)C(=O)O)NC(=O)CNC(=O)[C@H](CC(C)C)NC(=O)CNC(=O)[C@H](CO)NC(=O)[C@H](CCC(N)=O)NC(=O)[C@H](C)NC(=O)CNC(=O)[C@H]([C@@H](C)CC)NC(=O)[C@H](CCCNC(=N)N)NC(=O)[C@H](CC(=O)O)NC(=O)[C@H](CCSC)NC(=O)[C@H](CCCNC(=N)N)NC(=O)CNC(=O)CNC(=O)[C@H](Cc2ccccc2)NC(=O)[C@@H](NC(=O)[C@H](CO)NC(=O)[C@H](CO)NC(=O)[C@H](CCCNC(=N)N)NC(=O)[C@H](CCCNC(=N)N)NC(=O)[C@H](CC(C)C)NC(=O)[C@@H](N)CO)CSSC[C@@H](C(=O)N[C@@H](CC(N)=O)C(=O)N[C@@H](CO)C(=O)N[C@@H](Cc2ccccc2)C(=O)N[C@@H](CCCNC(=N)N)C(=O)N[C@@H](Cc2ccc(O)cc2)C(=O)O)NC(=O)CNC(=O)[C@H](CC(C)C)NC(=O)CNC(=O)[C@H](CO)NC(=O)[C@H](CCC(N)=O)NC(=O)[C@H](C)NC(=O)CNC1=O` [Beta-ANP], for which, in data set [1] (Table 2, 100 nM, 4 days), the “ATP (nM ATP/well)” value is 13.6 ± 2.1 nM ATP/well. In addition, the “cAMP (pmol/well)” value in data set [2] (100 nM (cAMP concentration)) turned out to be 070 ± 0.04 pmol/well.

Turning to `CC[C@H](C)[C@H](NC(=O)[C@H](C)NC(=O)[C@@H](NC(=O)[C@H](CCC(N)=O)NC(=O)[C@@H]1CCCN1C(=O)[C@H](Cc1ccccc1)NC(=O)[C@@H](NC(=O)[C@H](Cc1c[nH]cn1)NC(=O)[C@H](Cc1ccccc1)NC(=O)[C@H](CCCCN)NC(=O)[C@H](CC(N)=O)NC(=O)[C@H](Cc1ccccc1)NC(=O)[C@H](CC(=O)O)NC(=O)[C@H](CCC(N)=O)NC(=O)[C@@H](NC(=O)[C@H](Cc1ccc(O)cc1)NC(=O)[C@@H](NC(=O)CNC(=O)[C@H](CC(C)C)NC(=O)[C@H](CCSC)NC(=O)[C@@H]1CSSC[C@H](N)C(=O)NCC(=O)N[C@@H](CC(N)=O)C(=O)N[C@@H](CC(C)C)C(=O)N[C@@H](CO)C(=O)N[C@@H]([C@@H](C)O)C(=O)N1)[C@@H](C)O)[C@@H](C)O)[C@@H](C)O)[C@@H](C)O)C(=O)NCC(=O)N[C@H](C(=O)NCC(=O)N[C@@H](C)C(=O)N1CCC[C@H]1C(N)=O)C(C)C` [Calcitonin (human)], the “ATP (nM ATP/well)” value in data set [1] (Table 2, 100 nM, 4 days) amounted to 9.9 ± 1.6 nM ATP/well. The “cAMP (pmol/well)” value in data set [2] (100 nM (cAMP concentration)) was 0.35 ± 0.15 pmol/well. For the compound `CC[C@H](C)[C@H](NC(=O)[C@H](CC(=O)O)NC(=O)[C@H](CC(C)C)NC(=O)[C@H](Cc1cnc[nH]1)NC(=O)[C@@H]1CSSC[C@H](N)C(=O)N[C@@H](CO)C(=O)N[C@H]2CSSC[C@H](NC(=O)[C@H](CCC(=O)O)NC(=O)[C@H](CCCCN)NC(=O)[C@H](CC(=O)O)NC(=O)[C@H](CCSC)NC(=O)[C@H](CC(C)C)NC(=O)[C@H](CO)NC(=O)[C@H](CO)NC2=O)C(=O)N[C@@H](C(C)C)C(=O)N[C@@H](Cc2ccc(O)cc2)C(=O)N[C@@H](Cc2ccccc2)C(=O)N1)C(=O)N[C@H](C(=O)N[C@@H](Cc1c[nH]c2ccccc12)C(=O)O)[C@@H](C)CC` [Endothelin-1 (human, Bovine, Canine, Mouse, Porcine, Rat)], the “ATP (nM ATP/well)” value in data set [1] (Table 4, 10 nM) was found to be 14.4 ± 2.4 nM ATP/well. In addition, in data set [1] (Table 4, 10 nM, 0.01 µM), the “Fold Induction ATP” value was 3.2* fold.

As to `CC(C)Cn1c(=O)n(C)c(=O)c2[nH]cnc21` [IBMX, 3-Isobutyl-1-Methylxanthine], the “proliferation of neural stem cells” value in data set [1] (cAMP activators, GPCR-independent) is recorded as “increase”.
